Data: patent US6855714B2, “1-alkyl-2-aryl-benzimidazole derivatives, their use for the production of pharmaceutical agents as well as pharmaceutical preparations that contain these derivatives” (Schering Aktiengesellschaft, priority 2001, dated 2005)

Test system: primary rat microglia
Assay: Inhibition of microglia activation (Aβ peptide stimulation, MTS reduction)
Format: cell-based
Conditions: Aβ-activated primary rat microglia, MTS reduction on day 7, compound added on day 5; read-out: IC50 in the Microglia Inhibition Test
Method: For in vitro production of Aβ-activated microglia, primary rat microglia are incubated with synthetic Aβ peptide:
To simulate Aβ deposits, synthetic Aβ peptide is dried on 96-hole tissue culture plates. A peptide stock solution of 2 mg/ml of H2O 1:50 in H2O, is diluted in this. To coat the 96-hole plates, 30 μL of this dilute peptide solution/hole is used and dried overnight at room temperature.
Primary rat microglia are harvested from mixed glia cultures, which were obtained from P3 rat brains. For the production of mixed glia cultures, the brains are removed from 3-day-old rats and meninges are removed therefrom. The isolation of cells is achieved by trypsinization (0.25% trypsin solution, 15 minutes 37° C.)). After undigested tissue fragments are separated with the aid of a 40 µm nylon mesh, the isolated cells are centrifuged off (800 rpm/10 minutes). The cell pellet is resuspended in culture medium and moved into 100 ml tissue culture flasks (1 brain/tissue culture flask). […]
To quantify the microglia reactivity, the metabolic activity is measured on cultivation day 7 via the reduction of MTS (3-(4,5-dimethylthiazol-2-yl)-5-(3carboxymethoxyphenyl)-2-(sulfophenyl)-2H-tetrazolium), Owen's reagent, Baltrop, J. A. et al., Bioorg. & Med. Chem. Lett., 1, 6111 (1991)). […]

| Compound | IC50 [nM] |
| --- | --- |
| COCCCn1c(-c2ccccc2)nc2ccc(OCCCCCC(=O)OC)cc21 [6-[(5-(Methoxycarbonyl)pentyl)oxy]-1-(3-methoxy-n-propyl)-2-phenyl-benzimidazole] | 650 |
| COC(=O)CCCCCOc1ccc2nc(-c3ccc(OC)cc3)n(CCCN(C)C(C)=O)c2c1 [6-[(5-(Methoxycarbonyl)pentyl)oxy]-2-(4-methoxy-phenyl)-1-[3-(N-methyl-N-(methylcarbonyl)amino)propyl]-benzimidazole] | 390 |
